The values that follow are results of earlier work, collected in US7098029B1, “Product and method for control of obesity” (Metabolic Pharmaceuticals Limited, priority 1999, dated 2006).

In this series the test system is C57B1/6J (Ob/Ob) mouse. The settings on record: administration by injection; cited from earlier work.

With “hGH 177–191: synthetic peptide corresponding to amino acid residues 177–191 of the human growth hormone sequence (LRIVQCRSVEGSCGF)”, the adipose tissue mass result is “reduce body weight gain and adipose tissue mass”; the body weight gain result was “reduce body weight gain”.
